Measured values published in ChEMBL document CHEMBL3885861, “Open TG-GATES”.

Species: Rattus norvegicus
Assay: Open TG-GATES - Regimen: Single
Type: toxicity, organism-based, Sprague-Dawley
Set-up: regimen Single, gender Male, age 6 weeks
Details: in vivo, po, route gavage; for Bas / Eos / Ht / Lym / MCH / Mono / Neu / RBC / Ret: tissue Blood; for KIDNEY_L / KIDNEY_R / KIDNEY_TOTAL: tissue Kidney; for LIVER: tissue Liver; for ALP / ALT / AST / CRE / Ca / DBIL / IP / K / LDH / Na / PL / RALB / TBIL / TC / TG / TP / gamma-GTP: tissue Plasma
[1] = 600 mg/kg, 3 h, dose level Middle
[2] = 600 mg/kg, 6 h, dose level Middle
[3] = 600 mg/kg, 9 h, dose level Middle
[4] = 600 mg/kg, 24 h, dose level Middle
[5] = 2000 mg/kg, 3 h, dose level High
[6] = 2000 mg/kg, 6 h, dose level High
[7] = 2000 mg/kg, 9 h, dose level High
[8] = 2000 mg/kg, 24 h, dose level High

COc1cc2ncnc(Nc3ccc(F)c(Cl)c3)c2cc1OCCCN1CCOCC1 [GEFITINIB]
Bas [1]: 0%
Eos [1]: 0.6%
Ht [1]: 37%
Lym [1]: 75%
MCH [1]: 21.1 pg
Mono [1]: 2.4%
Neu [1]: 21%
RBC [1]: 588 x10_4/ul
Ret [1]: 9.3%
KIDNEY_L [1]: 1 g
KIDNEY_R [1]: 1 g
KIDNEY_TOTAL [1]: 1.9 g
LIVER [1]: 9.7 g
ALP [1]: 1687 IU/L
ALT [1]: 58.6 IU/L
AST [1]: 80.8 IU/L
CRE [1]: 0.1 mg/dL
Ca [1]: 9.7 mg/dL
DBIL [1]: 0.016 mg/dL
IP [1]: 8.6 mg/dL
K [1]: 3.9 meq/L
LDH [1]: 191.4 IU/L
Na [1]: 141.8 meq/L
PL [1]: 141 mg/dL
RALB [1]: 3.9 g/dL
TBIL [1]: 0.074 mg/dL
TC [1]: 87.2 mg/dL
TG [1]: 49.7 mg/dL
TP [1]: 5.4 g/dL
gamma-GTP [1]: 1 IU/L
TERMINAL_BW [2]: 210.3 g
Bas [2]: 0%
Eos [2]: 0.6%
Ht [2]: 36.6%
Lym [2]: 80.2%
MCH [2]: 21.1 pg
Mono [2]: 2.6%
Neu [2]: 15.6%
RBC [2]: 582 x10_4/ul
Ret [2]: 8.9%
KIDNEY_L [2]: 0.9 g
KIDNEY_R [2]: 0.9 g
KIDNEY_TOTAL [2]: 1.9 g
LIVER [2]: 9.1 g
ALP [2]: 1267.2 IU/L
ALT [2]: 59.4 IU/L
AST [2]: 82 IU/L
CRE [2]: 0.1 mg/dL
Ca [2]: 9.8 mg/dL
DBIL [2]: 0.016 mg/dL
IP [2]: 8.8 mg/dL
K [2]: 4 meq/L
LDH [2]: 200.4 IU/L
Na [2]: 141.3 meq/L
PL [2]: 152.8 mg/dL
RALB [2]: 3.9 g/dL
TBIL [2]: 0.078 mg/dL
TC [2]: 96 mg/dL
TG [2]: 42.8 mg/dL
TP [2]: 5.4 g/dL
gamma-GTP [2]: 1 IU/L
TERMINAL_BW [3]: 212.8 g
Bas [3]: 0%
Eos [3]: 0.8%
Ht [3]: 37%
Lym [3]: 77.6%
MCH [3]: 21.1 pg
Mono [3]: 3%
Neu [3]: 18%
RBC [3]: 587 x10_4/ul
Ret [3]: 9.2%
KIDNEY_L [3]: 0.9 g
KIDNEY_R [3]: 1 g
KIDNEY_TOTAL [3]: 1.9 g
LIVER [3]: 8.9 g
ALP [3]: 1338.6 IU/L
ALT [3]: 51 IU/L
AST [3]: 71.2 IU/L
CRE [3]: 0.2 mg/dL
Ca [3]: 9.9 mg/dL
DBIL [3]: 0.016 mg/dL
IP [3]: 9.1 mg/dL
K [3]: 4.2 meq/L
LDH [3]: 160.6 IU/L
Na [3]: 143.1 meq/L
PL [3]: 153 mg/dL
RALB [3]: 3.8 g/dL
TBIL [3]: 0.076 mg/dL
TC [3]: 96 mg/dL
TG [3]: 46.7 mg/dL
TP [3]: 5.4 g/dL
gamma-GTP [3]: 0.9 IU/L
TERMINAL_BW [4]: 211.6 g
Bas [4]: 0%
Eos [4]: 0.8%
Ht [4]: 40%
Lym [4]: 66.2%
MCH [4]: 20.7 pg
Mono [4]: 3.6%
Neu [4]: 29%
RBC [4]: 625.6 x10_4/ul
Ret [4]: 7.6%
KIDNEY_L [4]: 0.9 g
KIDNEY_R [4]: 1 g
KIDNEY_TOTAL [4]: 1.9 g
LIVER [4]: 8.9 g
ALP [4]: 1287.2 IU/L
ALT [4]: 42 IU/L
AST [4]: 73.8 IU/L
CRE [4]: 0.2 mg/dL
DBIL [4]: 0.008 mg/dL
IP [4]: 8.9 mg/dL
K [4]: 4.3 meq/L
LDH [4]: 178.6 IU/L
Na [4]: 142.8 meq/L
PL [4]: 186.2 mg/dL
RALB [4]: 4 g/dL
TBIL [4]: 0.058 mg/dL
TC [4]: 126.4 mg/dL
TG [4]: 65 mg/dL
TP [4]: 5.5 g/dL
gamma-GTP [4]: 1.2 IU/L
TERMINAL_BW [5]: 214.3 g
Bas [5]: 0%
Eos [5]: 0.6%
Ht [5]: 37.2%
Lym [5]: 68%
MCH [5]: 21.3 pg
Mono [5]: 3%
Neu [5]: 27.6%
RBC [5]: 591 x10_4/ul
Ret [5]: 9.4%
KIDNEY_L [5]: 0.9 g
KIDNEY_R [5]: 0.9 g
KIDNEY_TOTAL [5]: 1.8 g
LIVER [5]: 9.4 g
ALP [5]: 1590.6 IU/L
ALT [5]: 71 IU/L
AST [5]: 87.4 IU/L
CRE [5]: 0.1 mg/dL
Ca [5]: 9.9 mg/dL
DBIL [5]: 0.012 mg/dL
IP [5]: 9.1 mg/dL
K [5]: 3.9 meq/L
LDH [5]: 236 IU/L
Na [5]: 141.9 meq/L
PL [5]: 145.4 mg/dL
RALB [5]: 3.9 g/dL
TBIL [5]: 0.072 mg/dL
TC [5]: 91.2 mg/dL
TG [5]: 56.5 mg/dL
TP [5]: 5.4 g/dL
gamma-GTP [5]: 0.9 IU/L
TERMINAL_BW [6]: 213.7 g
Bas [6]: 0%
Eos [6]: 0.8%
Ht [6]: 37.3%
Lym [6]: 76.4%
MCH [6]: 21.3 pg
Mono [6]: 3.2%
RBC [6]: 589.2 x10_4/ul
Ret [6]: 9%
KIDNEY_L [6]: 0.9 g
KIDNEY_R [6]: 1 g
KIDNEY_TOTAL [6]: 1.9 g
LIVER [6]: 9.1 g
ALP [6]: 1266.2 IU/L
ALT [6]: 56.2 IU/L
AST [6]: 78.6 IU/L
CRE [6]: 0.2 mg/dL
Ca [6]: 9.6 mg/dL
DBIL [6]: 0.024 mg/dL
IP [6]: 9.1 mg/dL
K [6]: 3.9 meq/L
LDH [6]: 184.6 IU/L
Na [6]: 140.7 meq/L
PL [6]: 150.8 mg/dL
RALB [6]: 3.8 g/dL
TBIL [6]: 0.092 mg/dL
TC [6]: 99.6 mg/dL
TG [6]: 30 mg/dL
TP [6]: 5.4 g/dL
gamma-GTP [6]: 0.9 IU/L
TERMINAL_BW [7]: 212.3 g
Bas [7]: 0%
Eos [7]: 0.2%
Ht [7]: 37.4%
Lym [7]: 76.2%
MCH [7]: 21.1 pg
Mono [7]: 2.4%
Neu [7]: 20.4%
RBC [7]: 592.6 x10_4/ul
Ret [7]: 9.3%
KIDNEY_L [7]: 0.9 g
KIDNEY_R [7]: 1 g
KIDNEY_TOTAL [7]: 1.9 g
LIVER [7]: 8.6 g
ALP [7]: 1162 IU/L
ALT [7]: 56.4 IU/L
AST [7]: 77.4 IU/L
CRE [7]: 0.1 mg/dL
Ca [7]: 9.6 mg/dL
DBIL [7]: 0.028 mg/dL
IP [7]: 8.7 mg/dL
K [7]: 3.8 meq/L
LDH [7]: 210.6 IU/L
Na [7]: 142.6 meq/L
PL [7]: 148.2 mg/dL
RALB [7]: 3.8 g/dL
TBIL [7]: 0.1 mg/dL
TC [7]: 98 mg/dL
TG [7]: 29 mg/dL
TP [7]: 5.4 g/dL
gamma-GTP [7]: 0.9 IU/L
TERMINAL_BW [8]: 204 g
Bas [8]: 0%
Eos [8]: 0.5%
Ht [8]: 40.5%
Lym [8]: 59.8%
MCH [8]: 21 pg
Mono [8]: 3.5%
Neu [8]: 35.8%
RBC [8]: 632 x10_4/ul
Ret [8]: 8.1%
KIDNEY_L [8]: 0.9 g
KIDNEY_R [8]: 0.9 g
KIDNEY_TOTAL [8]: 1.9 g
LIVER [8]: 8.6 g
ALP [8]: 1061.5 IU/L
ALT [8]: 76.8 IU/L
AST [8]: 126 IU/L
CRE [8]: 0.2 mg/dL
DBIL [8]: 0.03 mg/dL
IP [8]: 8.4 mg/dL
K [8]: 3.5 meq/L
LDH [8]: 272 IU/L
Na [8]: 143.2 meq/L
PL [8]: 144.8 mg/dL
RALB [8]: 3.9 g/dL
TBIL [8]: 0.1 mg/dL
TC [8]: 111.2 mg/dL
TG [8]: 39.6 mg/dL
TP [8]: 5.4 g/dL
gamma-GTP [8]: 1.4 IU/L
